Laboratory results as given in ChEMBL document CHEMBL1201862, “PubChem BioAssay data set” (2004).
Structures can show the parent of a compound that is named as a salt. Activity calls are given as the source filed them.

How the values were obtained:
[1] = P. falciparum 3D7-ScDHODH growth inhibitors, dose response, SYBR Green, dry powder samples (AID 1159570); format: functional, cell-based;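 also: parasite growth measured after 72 hours of compound exposure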
[2] = HepG2 cell cytotoxicity, dose response, cytotoxicity control, plate reader, dry powder samples (AID 1159569); format: functional, cell-based;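 also: inhibitor potency with signal falling toward the positive control level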
[3] = P. falciparum Dd2 growth inhibitors, dose response, SYBR Green, cherry-picked samples (AID 1159567); format: functional, cell-based
[4] = P. falciparum Dd2 growth inhibitors, dose response, SYBR Green, dry powder samples (AID 1159566); format: functional, cell-based;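 also: potency for growth inhibition with lower SYBR green DNA signal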
[5] = HepG2 cell cytotoxicity, dose response, cytotoxicity control, cherry-picked samples (AID 1159577); format: functional, cell-based
[6] = P. falciparum ATP4 D1247Y mutant growth inhibitors, dose response, NITD609-resistant line, SYBR Green, dry powder (AID 1159571); format: functional, cell-based;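 also: parasites synchronized at ring stage by sorbitol before testing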
[7] = biological target: T1, Rac GTPase-activating protein 1 (Homo sapiens, UniProt Q9H0H5); experiment: MgcRacGAP GTPase-activating activity inhibitors, confirmation, biochemical, ADP Hunter fluorescence, primary and confirmatory (AID 624330); format: functional
T1 sequence (Q9H0H5 whole entry): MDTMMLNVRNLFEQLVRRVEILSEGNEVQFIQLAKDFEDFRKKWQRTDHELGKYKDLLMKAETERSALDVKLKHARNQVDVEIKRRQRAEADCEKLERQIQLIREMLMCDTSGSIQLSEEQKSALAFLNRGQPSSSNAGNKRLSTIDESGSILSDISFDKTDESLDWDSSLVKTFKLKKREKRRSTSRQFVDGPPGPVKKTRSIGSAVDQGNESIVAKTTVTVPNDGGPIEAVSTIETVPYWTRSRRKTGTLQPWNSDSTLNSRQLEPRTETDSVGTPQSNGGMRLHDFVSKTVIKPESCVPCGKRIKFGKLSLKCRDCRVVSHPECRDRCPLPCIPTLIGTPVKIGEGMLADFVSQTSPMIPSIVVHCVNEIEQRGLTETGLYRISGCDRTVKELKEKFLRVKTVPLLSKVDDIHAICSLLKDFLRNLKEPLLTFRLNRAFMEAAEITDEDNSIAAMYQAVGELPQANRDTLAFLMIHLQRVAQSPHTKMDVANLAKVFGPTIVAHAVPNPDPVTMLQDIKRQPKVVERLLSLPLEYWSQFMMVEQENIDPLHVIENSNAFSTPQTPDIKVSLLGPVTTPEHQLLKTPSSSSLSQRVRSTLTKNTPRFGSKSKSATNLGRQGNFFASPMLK

[8] = inhibitors of HIV Env-driven cell fusion, dose response, cherry-pick (AID 652057); format: functional, cell-based
[9] = ZM109 Env clade C HIV-1 fusion inhibitors, dose response, HeLa effector, CEM target cells, luciferase, cherry-pick (AID 652058); format: functional, cell-based
Paired box protein Pax-8 = Paired box protein Pax-8 (Homo sapiens, UniProt Q06710); experiment: inhibitors of PAX8-driven TPO luciferase reporter, dose response, RMG-I cells, cherry-pick (AID 687027); format: functional, cell-based;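 also: luciferase reporter driven by Pax8 target thyroperoxidase promoter measured by SteadyGlo luminescence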
[10] = off-target signal loss in HeLa-CEM21 co-culture – HeLa F-luc CTL cells, cherry-picked, counter-screen for HIV-1 Env fusion inhibitor project, dose response (AID 652040); format: functional, cell-based;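 also: potency for signal decrease marking cytotoxic or nonspecific inhibition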
[11] = inhibitors of clade B AD8 Env fusion, dose response, cell-based, cherry-pick (AID 652062); format: functional;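 also: luciferase signal from cell-cell fusion driven by HIV-1 clade B AD8 Env; potency is for inhibitors of fusion seen as a drop in luminescence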
[12] = A549 cell cytotoxicity, dose response, cytotoxicity control, plate reader, cherry-pick, antagonist series (AID 743412); format: functional, cell-based
[13] = LGR2 antagonists, dose response, cell-based, HEK293, CRE-luciferase reporter, cherry pick, set 2 (AID 743343); format: functional;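 also: transfected cells were stimulated with diluted bursicon conditioned medium after compound addition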
[14] = MC4R antagonists, dose response, counter-screen for LGR2 antagonist project, cell-based, plate reader, cherry pick (AID 743444); format: functional;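 also: transfected HEK 293 cells stimulated with alpha-MSH peptide; potency of inhibitors of the alpha-MSH evoked signal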
[15] = biological target: T2, Oxysterols receptor LXR-beta (Homo sapiens, UniProt P55055); format: functional, cell-based;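 also: Cell-based luminescence dose-response assay of agonist activity at LXR, run as a confirmatory counterscreen to a daf-12 agonist screen; HEK293 cells with Gal4-LXR fusion and GAL4-driven luciferase reporter; agonist potency from rising luciferase signal of a Gal4-LXR reporter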
T2 sequence (P55055 whole entry): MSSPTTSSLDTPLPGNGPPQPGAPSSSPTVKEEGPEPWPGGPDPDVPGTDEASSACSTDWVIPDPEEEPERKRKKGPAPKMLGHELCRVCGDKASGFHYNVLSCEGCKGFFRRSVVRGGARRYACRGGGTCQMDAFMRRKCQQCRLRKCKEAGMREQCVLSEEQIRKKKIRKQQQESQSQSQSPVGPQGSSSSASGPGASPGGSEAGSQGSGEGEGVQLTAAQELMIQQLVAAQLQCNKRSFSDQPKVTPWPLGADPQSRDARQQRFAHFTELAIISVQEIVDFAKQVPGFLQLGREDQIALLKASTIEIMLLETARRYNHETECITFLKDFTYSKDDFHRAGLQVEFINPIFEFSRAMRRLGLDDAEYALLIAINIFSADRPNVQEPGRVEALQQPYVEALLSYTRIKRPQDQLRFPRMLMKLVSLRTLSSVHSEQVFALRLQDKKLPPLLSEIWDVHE

cells [16] = experiment: cells
NADPH oxidase 1 = biological target: T3, NADPH oxidase 1 (Homo sapiens, UniProt Q9Y5S8); format: functional, cell-based;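 also: Cell-based assay with luminescence read-out, IC50 derived from inhibitor dose-response curves; intracellular ROS from endogenous NOX1 in intact HT29 colon cancer cells; potency of inhibitors that lower the ROS luminescence signal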
T3 sequence (Q9Y5S8 whole entry): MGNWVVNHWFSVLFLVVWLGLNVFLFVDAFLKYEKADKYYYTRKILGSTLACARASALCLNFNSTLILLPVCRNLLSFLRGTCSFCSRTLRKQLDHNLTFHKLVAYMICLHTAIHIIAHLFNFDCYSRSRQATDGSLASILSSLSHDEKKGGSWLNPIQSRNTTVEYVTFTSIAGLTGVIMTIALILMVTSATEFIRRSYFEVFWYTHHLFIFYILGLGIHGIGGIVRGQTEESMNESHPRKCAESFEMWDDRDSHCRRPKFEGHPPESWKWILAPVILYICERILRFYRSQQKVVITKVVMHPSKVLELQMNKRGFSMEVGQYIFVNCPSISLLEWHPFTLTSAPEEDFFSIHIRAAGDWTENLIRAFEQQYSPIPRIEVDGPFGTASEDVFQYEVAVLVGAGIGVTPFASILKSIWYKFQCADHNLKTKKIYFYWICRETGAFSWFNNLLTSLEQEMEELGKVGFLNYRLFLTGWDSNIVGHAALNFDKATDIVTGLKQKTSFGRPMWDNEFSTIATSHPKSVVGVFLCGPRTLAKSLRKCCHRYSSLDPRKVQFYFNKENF

[17] = biological target: FAD-linked sulfhydryl oxidase ALR (Homo sapiens, UniProt P55789); experiment: inhibitors of human ALR sulfhydryl oxidase, dose response, biochemical, H2O2 detection, luminescence, cherry-pick (AID 493248)
Protein skinhead-1 = biological target: T4, Protein skinhead-1 (Caenorhabditis elegans, UniProt P34707); format: functional
T4 sequence (P34707 whole entry): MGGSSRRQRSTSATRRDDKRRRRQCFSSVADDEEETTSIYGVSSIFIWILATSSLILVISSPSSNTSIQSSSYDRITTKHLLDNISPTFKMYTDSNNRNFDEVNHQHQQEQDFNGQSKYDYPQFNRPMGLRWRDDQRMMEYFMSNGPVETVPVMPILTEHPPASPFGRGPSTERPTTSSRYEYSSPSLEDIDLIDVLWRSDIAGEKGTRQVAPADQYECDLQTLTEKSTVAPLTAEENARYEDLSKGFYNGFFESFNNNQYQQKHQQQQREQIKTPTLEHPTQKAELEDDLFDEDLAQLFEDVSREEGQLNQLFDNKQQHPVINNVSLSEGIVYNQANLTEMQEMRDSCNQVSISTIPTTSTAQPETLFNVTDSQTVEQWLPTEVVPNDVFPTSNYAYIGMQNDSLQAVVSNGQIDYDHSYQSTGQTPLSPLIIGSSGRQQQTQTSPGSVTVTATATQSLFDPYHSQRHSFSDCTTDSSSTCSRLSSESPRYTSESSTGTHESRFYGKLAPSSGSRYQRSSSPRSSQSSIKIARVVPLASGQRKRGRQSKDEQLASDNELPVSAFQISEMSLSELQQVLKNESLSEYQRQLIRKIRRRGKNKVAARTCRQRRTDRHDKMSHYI

cells [18] = format: functional, cell-based
cells [19] = format: functional, cell-based; remark: listed apart in the source
[20] = biological target: T5, Aryl hydrocarbon receptor (Homo sapiens, UniProt P35869); experiment: Luminescence-based cell-based high throughput dose response assay for activators of the Aryl Hydrocarbon Receptor (AHR). [Related pubchem assays: 2796 (Primary screen (AHR activators in singlicate)), 2845 (Confirmation screen (AHR activators in triplicate)), 434939 (Counterscreen (PXR activators in triplicate)), 2804 (Summary (AHR activators))]; format: ADME
T5 sequence (P35869 whole entry): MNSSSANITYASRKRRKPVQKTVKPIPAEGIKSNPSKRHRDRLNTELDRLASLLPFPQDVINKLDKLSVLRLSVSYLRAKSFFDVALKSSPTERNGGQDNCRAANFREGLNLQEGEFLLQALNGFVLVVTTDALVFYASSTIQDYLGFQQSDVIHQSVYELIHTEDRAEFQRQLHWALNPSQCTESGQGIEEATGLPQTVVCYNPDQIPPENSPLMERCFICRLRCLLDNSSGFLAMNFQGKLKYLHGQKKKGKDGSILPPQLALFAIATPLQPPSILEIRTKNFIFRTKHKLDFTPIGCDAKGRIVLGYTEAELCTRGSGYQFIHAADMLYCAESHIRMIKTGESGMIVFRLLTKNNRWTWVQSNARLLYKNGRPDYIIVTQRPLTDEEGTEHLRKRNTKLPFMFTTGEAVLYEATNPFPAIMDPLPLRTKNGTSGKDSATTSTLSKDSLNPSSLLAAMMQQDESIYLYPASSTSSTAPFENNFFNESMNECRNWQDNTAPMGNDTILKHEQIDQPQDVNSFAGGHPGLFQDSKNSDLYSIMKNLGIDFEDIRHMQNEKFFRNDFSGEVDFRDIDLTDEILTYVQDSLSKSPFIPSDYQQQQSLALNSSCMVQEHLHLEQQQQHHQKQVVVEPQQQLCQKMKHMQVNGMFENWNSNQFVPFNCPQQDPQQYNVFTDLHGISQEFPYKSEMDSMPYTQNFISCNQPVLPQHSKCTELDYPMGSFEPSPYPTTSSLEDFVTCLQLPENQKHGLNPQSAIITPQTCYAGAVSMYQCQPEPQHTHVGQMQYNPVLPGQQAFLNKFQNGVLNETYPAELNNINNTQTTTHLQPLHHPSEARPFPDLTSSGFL

[21] = THP-1 cell cytotoxicity, dose response, cytotoxicity control for Vif-APOBEC3G degradation inhibitor project, THP-1 cells (AID 1117359); format: functional; conditions: Human immunodeficiency virus 1, THP-1

Sequence of Paired box protein Pax-8 (Q06710 whole entry, the tested form may be a part): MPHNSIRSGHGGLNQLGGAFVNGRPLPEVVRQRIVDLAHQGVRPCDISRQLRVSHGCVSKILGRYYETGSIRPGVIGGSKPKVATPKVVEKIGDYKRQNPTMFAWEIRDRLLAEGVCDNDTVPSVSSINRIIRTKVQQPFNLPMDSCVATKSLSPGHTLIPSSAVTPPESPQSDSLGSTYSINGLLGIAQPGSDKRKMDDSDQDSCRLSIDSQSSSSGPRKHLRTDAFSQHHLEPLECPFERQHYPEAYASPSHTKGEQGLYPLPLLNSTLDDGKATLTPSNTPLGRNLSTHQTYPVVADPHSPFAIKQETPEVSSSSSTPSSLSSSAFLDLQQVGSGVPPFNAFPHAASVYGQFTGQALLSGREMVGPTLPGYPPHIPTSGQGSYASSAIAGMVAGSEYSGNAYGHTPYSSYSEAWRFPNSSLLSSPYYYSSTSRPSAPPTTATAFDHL
Sequence of FAD-linked sulfhydryl oxidase ALR (P55789 whole entry): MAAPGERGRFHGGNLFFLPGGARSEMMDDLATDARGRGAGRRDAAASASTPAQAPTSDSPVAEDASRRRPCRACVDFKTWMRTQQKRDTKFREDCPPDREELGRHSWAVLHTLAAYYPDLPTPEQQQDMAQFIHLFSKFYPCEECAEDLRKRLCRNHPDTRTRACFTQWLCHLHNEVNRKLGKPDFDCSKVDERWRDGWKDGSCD

In the case of `C[C@@H]1CN([C@H](C)CO)C(=O)c2cc(C#Cc3ccccc3)cnc2O[C@H]1CN(C)C(=O)CCN1CCCCC1`, the AC50 [1] is reported as 2.34 µM (active), the AC50 [2] is reported as 22.9 µM (active) and the AC50 [3] is reported as 2.23 µM (active). For the same compound, the AC50 [4] was 1.49 µM (active), the AC50 [5] was 35.6 µM (active) and the AC50 [6] was 1.79 µM (active).
In the case of `Cc1ccsc1/C=N/Nc1cccc(C(=O)O)c1`, the IC50 [7] is reported as 92.5 µM (active), the AC50 [8] is reported as 1.32 µM (active) and the AC50 [9] is reported as 7.12 µM (active). For the same compound, the AC50 (Paired box protein Pax-8) was 4.41 µM (active), the AC50 [10] was 2.45 µM (active) and the AC50 [11] was 2.65 µM (active). For the same compound, the AC50 [12] was > 52 µM (inactive), the AC50 [13] was 1.3 µM (active) and the AC50 [14] was 1.14 µM (active). The EC50 [15] was > 67.5 µM (inactive) and the EC50 (cells [16]) was > 67.5 µM (inactive).
For `CN(C)CCCN1c2ccccc2Sc2ccccc21` [PROMAZINE HYDROCHLORIDE], the IC50 (NADPH oxidase 1) was > 17 µM (not active) and the AC50 [17] was 1.28 µM (active).
In the case of `Fc1cccc(F)c1/C=C/c1ccc2ccccc2n1`, the IC50 (Protein skinhead-1) is reported as 36.8 µM (active), the EC50 [15] is reported as > 67.5 µM (inactive) and the EC50 (cells [16]) is reported as > 67.5 µM (inactive).
For `COc1cc2ccccc2cc1C(=O)Nc1ccc(C)cc1`, the EC50 (cells [18]) was > 350 µM (not active), the EC50 (cells [19]) was 29.2 µM (active) and the EC50 [20] was 0.394 µM (active).
With `NC(=O)c1ccccc1NC(=O)/C=C/c1ccc(Cl)cc1` the CC50 [21] was > 40 µM (active).
